Source: US7666901B2, “Analogs of 17-hydroxywortmannin as PI3K inhibitors” (Wyeth, priority 2004, dated 2010)
Values after ≈ are worked out from the molar mass of the structure shown.

Key:
[1] = tested on: phosphor-AKT (S473) in Rat1 cells; test: Rat1-IGF1 assay (IGF-1 induced phospho-AKT immunoblot); format: cell-based, rat; settings: Rattus norvegicus
Protocol: Rat1 cells are plated in 6-well culture plates and serum-starved for 24 hours. Serum-starved cells are treated either with control vehicle or with various concentrations of 17-HWT for 2 hours, stimulated by IGF-1 (100 ng/mL) for 30 minutes. Total cellular lysates are prepared using NuPAGE-LDS sample buffer (Invitrogen), sonicated and then clarified by centrifugation. Equal amounts of proteins are subject to immunoblotting analysis using NuPAGE electrophoresis system and probed with phosphor-AKT (S473), total AKT antibodies (Signaling Technology).

[2] = tested on: MDA468 (human breast cancer cell); test: Cell proliferation (MTS) assay, MDA468; format: cell-based; settings: three days treatment; for IC50: Homo sapiens, 72 h
Protocol: (§1) Results of cell proliferation assays for exemplary compounds are shown below in Tables 1 and 2. Cell lines LNCaP (human prostate carcinoma), MDA468 (human breast cancer cell), MDA435 (human breast adenocarcinoma), and DU145 (human prostate carcinoma[…]) were purchased from American Type Culture Collection (ATCC) (Rockville, Md.). Cells were cultured in RPMI Medium 1640 containing 10% fetal bovine serum (FBS) in a 37° C. incubator containing 5% CO2. All cell culture reagents were purchased from Gibco-BRL (Grand Island, N.Y.). Cells were plated in 96-well culture plates at about 3000 cells per well. One day following plating, compounds or vehicle controls (buffer only) were added to cells. Proliferation assays were performed three days post initiation of treatment.
(§2) For a non-radioactive cell proliferation assay, viable cell densities are determined by measuring metabolic conversion (by viable cells) of the dye MTS tatrazolium dye, a cell proliferation assay known by one of skill in the art (MTS assay), a previously established cell proliferation assay. The assay is performed using an assay kit (Promega Corp., Madison, Wis.). The assay plates are incubated for 1-2 hours, and the results are read in a 96-well format plate reader by measuring absorbance at 490 nm. Effect of each compound is calculated as a percentage of control cell growth obtained from vehicle-treated cells grown in the same plate.

Human TOR = molecular target: T1, Human TOR (Homo sapiens, UniProt P42345); test: Human TOR (mTOR) kinase assay, DELFIA format; format: biochemical
T1 construct: FLAG
Protocol: The PI3K/AKT/TOR pathway is critical for cell proliferation, growth, survival, and angiogensis. Accordingly, compounds of the present invention may also be useful to inhibit TOR activity. Similar in vivo and in vitro assays to those described above with reference to PI3K can be used to determine the minimum concentration of compound sufficient to inhibit TOR. A human TOR assay and a Rat1-IGF1 assay as described in Examples 67 and 68, respectively was performed with some embodiments of the invention. The results of these assays are shown below in Tables 1 and 2.
Human TOR assays (See Toral-Barza, et al. Biochem Biophys. Res. Commun. 2005 Jun. 24; 332(1):304-10) with purified enzyme are performed in 96-well plates by DELFIA format as follows. Enzymes are first diluted in kinase assay buffer (10 mM Hepes (pH 7.4), 50 mM NaCl, 50 mM b-glycerophosphate, 10 mM MnCl2, 0.5 mM DTT, 0.25 mM microcystin LR, and […] BSA). To each well, 12 mL of the diluted enzyme is mixed briefly with 0.5 mL test inhibitor or control vehicle dimethylsulfoxide (DMSO). The kinase reaction is initiated by adding 12.5 mL kinase assay buffer containing ATP and His6-S6K to give a final reaction volume of 25 mL containing 800 ng/mL FLAG-TOR, […] ATP and […] His6-S6K. The reaction plate is incubated for 2 hours (linear at 1-6 hours) at room temperature with gentle shaking and then terminated by adding 25 mL Stop buffer (20 mM Hepes (pH 7.4), 20 mM EDTA, 20 mM EGTA). The DELFIA detection of the phosphorylated (Thr-389) His6-S6K is performed at room temperature using a monoclonal anti-P(T389)-p70S6K antibody (1A5, Cell Signaling) labeled with Europium-N1-ITC (Eu) (10.4 Eu per antibody, PerkinElmer). The DELFIA Assay buffer and Enhancement solution can be purchased from PerkinElmer. 45 mL of the terminated kinase reaction mixture is transferred to a MaxiSorp plate (Nunc) containing 55 mL PBS. The His6-S6K is allowed to attach for 2 hours after which the wells are aspirated and washed once with PBS. 100 mL of DELFIA Assay buffer with 40 ng/mL Eu-P(T389)-S6K antibody is added. The antibody binding is continued for 1 hour with gentle agitation. The wells are then aspirated and washed 4 times with PBS containing 0.05% Tween-20 (PBST). […] of DELFIA Enhancement solution is added to each well and the plates are read in a PerkinElmer Victor model plate reader. Data obtained is used to calculate enzymatic activity and enzyme inhibition by potential inhibitors.

[3] = tested on: LNCaP (human prostate carcinoma); test: Cell proliferation (MTS) assay, LNCaP; format: cell-based; settings: three days treatment; for IC50: Homo sapiens, LNCaP, 72 h
Protocol: as §1, §2

[4] = tested on: DU145 (human prostate carcinoma/lymphocytic leukemia); test: Cell proliferation (MTS) assay, DU145; format: cell-based; settings: three days treatment; for IC50: Homo sapiens, DU-145, 72 h
Protocol: as §1, §2

[5] = tested on: MDA435 (human breast adenocarcinoma); test: Cell proliferation (MTS) assay, MDA435; format: cell-based; settings: three days treatment; for IC50: Homo sapiens, MDA435, 72 h
Protocol: as §1, §2

PI3K = tested on: T2, PI3K; test: Fluorescence polarization assay for PI3K; format: biochemical; settings: for PI3K FP IC50: Table 1
T2 construct: PI3K FP IC50
Protocol: This assay is used to determine the IC50 of compounds of the present invention as it identifies inhibitors of PI3 kinase by measuring inhibition.
The assay is run by placing 5 μL of diluted enzyme per well, then 5 μL of diluted compound (or 9.5 μL enzyme then 0.5 μL compound in DMSO) is added and mixed. Then, 10 μL substrate is added to start the reaction. The samples are incubated 30-60 minutes, then the reaction is stopped by adding 20 μL stop/detector mix.
PI3K is diluted with reaction buffer (e.g., 5 μL or 7.5 μL PI3K into 620 μL reaction buffer), and 5 μL of diluted enzyme is used per well. 5 μL reaction buffer or drug diluted in buffer (e.g., 4 μL/100 so final DMSO is 1% in reaction) is added to each. The samples are mixed by pipetting up and down. Alternatively, the enzyme can be diluted to 1215 μL. In this case 9.8 μL is added per well and 0.2 μL compound is added in DMSO.
To prepare 1 mL of substrate solution, 955 μL reaction buffer, 40 μL PIP2, and 2.5 μL ATP are mixed. 10 μL of substrate is added to each well to start the reaction.
Stop/detector mix is prepared by mixing 4 μL Red detector and 1.6 μL or 2.0 μL GST-GRP with 1 mL Stop buffer, which results in 10 nM probe and 70 nM GST-GRP). 20 μL of the stop/detector mix is added to each well to stop the reaction. The plates are read after 30-90 minutes keeping the red probe solutions dark.
For the zero time point, stop/detector mix is added to the enzyme just before adding substrate. For an extra control, stop/detector mix is added to buffer (no enzyme) and substrate or to just buffer (no substrate).
The recommended reaction has 0.06 μL per 20 μL (0.015 μg/20 μL) or 0.01125 μg/15 μL or 0.75 μg/mL.
Plates are read on machines with filters for Tamra. The units are mP with no enzyme controls reading app 190-220 mP units. Fully active enzyme reduces fluorescence polarization down to 70-100 mP after 30 minutes. An active cpd raises the mP values halfway to control or to 120-150 mP units.

| Molecule | IC50 ([1]; Table 2) | IC50 (PI3K; Table 2) | MDA468 IC50 ([2]; Table 1) | PI3K FP IC50 (PI3K) | TOR IC50 (Human TOR; Table 1) | LNCaP IC50 ([3]; Table 1) | DU145 IC50 ([4]; Table 1) | MDA435 IC50 ([5]; Table 1) | IC50 ([1]; Table 1) | IC50 ([2]; Table 1) | IC50 ([2]; Table 2) | IC50 (Human TOR; Table 1) | IC50 (Human TOR; Table 2) | IC50 ([3]; Table 1) | IC50 ([3]; Table 2) | IC50 ([4]; Table 1) | IC50 ([4]; Table 2) | IC50 ([5]; Table 1) | IC50 ([5]; Table 2) |
| --- | --- | --- | --- | --- | --- | --- | --- | --- | --- | --- | --- | --- | --- | --- | --- | --- | --- | --- | --- |
| COC[C@H]1OC(=O)/C(=C/N(C)CCCN(C)C)C2=C(O)C(=O)C3=C([C@H](OC(C)=O)C[C@@]4(C)C3CC[C@@H]4O)[C@]21C (stereo partly drawn) [Compound 5, (1E,4S,4aR,5R,6aS,7S)-1-{[[3-(dimethylamino)propyl](methyl)amino]methylene}-7,11-dihydroxy-4-(methoxymethyl)-4a,6a-dimethyl-2,10-dioxo-1,2,4,4a,5,6,6a,7,8,9,9a,10-dodecahydroindeno[4,5-h]isochromen-5-yl acetate] | – | – | – | – | – | – | – | – | 0.02 µg/mL | 1.8 µg/mL | 2 µg/mL | 2560 nM | 1280 nM | 0.4 µg/mL | 0.28 µg/mL | 10 µg/mL | 9.5 µg/mL | 15 µg/mL | 8.2 µg/mL |
| COC[C@H]1OC(=O)/C(=C/N2CCN(C3CCCCC3)CC2)C2=C(O)C(=O)C3=C([C@H](OC(C)=O)C[C@@]4(C)C3CC[C@@H]4O)[C@]21C (stereo partly drawn) [Compound 7, (1E,4S,4aR,5R,6aS,7S)-1-[(4-cyclohexylpiperazin-1-yl)methylene]-7,11-dihydroxy-4-(methoxymethyl)-4a,6a-dimethyl-2,10-dioxo-1,2,4,4a,5,6,6a,7,8,9,9a,10-dodecahydroindeno[4,5-h]isochromen-5-yl acetate] | – | – | – | – | – | – | – | – | 0.02 µg/mL | 2 µg/mL | – | 818 nM | – | 0.88 µg/mL | – | > 15 µg/mL | – | > 15 µg/mL | – |
| CCCCN(C)/C=C1/C(=O)O[C@H](COC)[C@@]2(C)C1=C(O)C(=O)C1=C2[C@H](OC(C)=O)C[C@@]2(C)C1CC[C@@H]2O (stereo partly drawn) [Compound 8, (1E,4S,4aR,5R,6aS,7S)-1-{[butyl(methyl)amino]methylene}-7,11-dihydroxy-4-(methoxymethyl)-4a,6a-dimethyl-2,10-dioxo-1,2,4,4a,5,6,6a,7,8,9,9a,10-dodecahydroindeno[4,5-h]isochromen-5-yl acetate] | – | – | – | – | – | – | – | – | 0.1 µg/mL | 0.6 µg/mL | 0.9 µg/mL | 8310 nM | 9080 nM | 0.09 µg/mL | 0.12 µg/mL | 2 µg/mL | 1.3 µg/mL | 5 µg/mL | 3.1 µg/mL |
| (1E,4S,4aR,5R,6aS,7S)-1-[(diallylamino)methylene]-7-(formyloxy)-11-hydroxy-4-(methoxymethyl)-4a,6a-dimethyl-2,10-dioxo-1,2,4,4a,5,6,6a,7,8,9,9a,10-dodecahydroindeno[4,5-h]isochromen-5-yl acetate [Compound 17] | – | – | 0.5 µg/mL | 0.607 µg/mL | 1.3 µg/mL | 0.14 µg/mL | 3 µg/mL | 7 µg/mL | – | – | – | – | – | – | – | – | – | – | – |
| (1E,4S,4aR,5R,6aS,7S)-7-(formyloxy)-11-hydroxy-4-(methoxymethyl)-4a,6a-dimethyl-2,10-dioxo-1-(pyrrolidin-1-ylmethylene)-1,2,4,4a,5,6,6a,7,8,9,9a,10-dodecahydroindeno[4,5-h]isochromen-5-yl acetate [Compound 16] | – | – | 0.28 µg/mL | 1.994 µg/mL | 8 µg/mL | 0.08 µg/mL | 1.3 µg/mL | 5.5 µg/mL | – | – | – | – | – | – | – | – | – | – | – |

More lines, main results first:

| IC50 ([1]; Table 2) | IC50 (PI3K; Table 2) | MDA468 IC50 ([2]; Table 1) | PI3K FP IC50 (PI3K) | TOR IC50 (Human TOR; Table 1) | LNCaP IC50 ([3]; Table 1) | DU145 IC50 ([4]; Table 1) | MDA435 IC50 ([5]; Table 1) | Molecule | IC50 ([1]; Table 1) | IC50 ([2]; Table 1) | IC50 ([2]; Table 2) | IC50 (Human TOR; Table 1) | IC50 (Human TOR; Table 2) | IC50 ([3]; Table 1) | IC50 ([3]; Table 2) | IC50 ([4]; Table 1) | IC50 ([4]; Table 2) | IC50 ([5]; Table 1) | IC50 ([5]; Table 2) |
| --- | --- | --- | --- | --- | --- | --- | --- | --- | --- | --- | --- | --- | --- | --- | --- | --- | --- | --- | --- |
| > 0.2 µg/mL | – | – | – | – | – | – | – | COC[C@H]1OC(=O)/C(=C\NCCOCCOCCNC(=O)CCCC[C@H]2SC[C@H]3NC(=O)N[C@H]32)C2=C(O)C(=O)C3=C([C@H](OC(C)=O)C[C@@]4(C)C3CC[C@@H]4O)[C@]21C (stereo partly drawn) [Compound 51, (1Z,4S,4aR,5R,6aS,7S)-7,11-dihydroxy-4-(methoxymethyl)-4a,6a-dimethyl-2,10-dioxo-1-{12-oxo-16-[(3aR,4R,6aS)-2-oxohexahydro-1H-thieno[3,4-d]imidazol-4-yl]-5,8-dioxa-2,11-diazahexadec-1-ylidene}-1,2,4,4a,5,6,6a,7,8,9,9a,10-dodecahydroindeno[4,5-h]isochromen-5-yl acetate] | – | – | 30 µg/mL | – | – | – | 2.8 µg/mL | – | – | – | – |
| – | 7 nM | – | – | – | – | – | – | COC[C@H]1OC(=O)/C(=C/N(C)CCCN(C)C)C2=C(O)C(=O)C3=C([C@H](O)C[C@@]4(C)C3CC[C@@H]4O)[C@]21C (stereo partly drawn) [Compound 60, (1E,4S,4aR,5R,6aS,7S)-1-{[[3-(dimethylamino)propyl](methyl)amino]methylene}-5,7,11-trihydroxy-4-(methoxymethyl)-4a,6a-dimethyl-4a,5,6,6a,7,8,9,9a-octahydroindeno[4,5-h]isochromene-2,10(1H,4H)-dione] | – | – | 2 µg/mL (≈ 3.96 µM) | – | 396 nM | – | 0.33 µg/mL (≈ 0.654 µM) | – | – | – | – |
